# Tests used:
# Type in all cases: in vivo, mouse
# [1] = system: wild type, RARγ+/− and RARγ−/− fetuses; assay: RA-induced skeletal malformations in wild type, RARγ+/− and RARγ−/− offspring
# Protocol: For whole mount skeletal analysis, fetuses were collected at day 18.5 p.c. and stored at −20° C. Skeletons were prepared as previously described (Lufkin et al., Nature 359:835-841 (1992)). For histological analysis, fetuses were skinned and then fixed in Bouin's fluid. Paraffin sections, 7 μm thick, were stained with Groat's hematoxylin and Mallory's trichrome. Organs were fixed in 10% formalin, and histological sections, 5 μm thick, were stained with hematoxylin and eosin. RARγ^+/− heterozygote animals were mated overnight and the presence of a vaginal plug at noon the next day considered as day 0.5 p.c. At various times, pregnant females received a single dose of RA dissolved in sunflower seed oil at a final delivery of 100 mg RA per kg animal. […] To determine if any of these malformations could be mediated by RARγ, pregnant dams from heterozygote crosses were treated with RA at day 8.5 or 9.0 p.c., and we examined day 18.5 p.c. fetuses for skeletal malformations. […] Comparison of RA-induced skeletal malformations in wild type, RARγ^+/− and RARγ^−/− offspring. […] Skeletons were prepared, and malformations scored under a dissecting microscope. Where possible, fetuses from the same litter were compared.
# [2] = system: wild type and RARβ2 null embryos; assay: RA-induced hindbrain and forebrain alterations in wild type and RARβ2 null embryos (in situ hybridization); details: 25 mg/kg at 7.25 dpc
# Protocol: For generation of hindbrain malformations timed mating experiments were performed and all-trans RA (Sigma) (25 mg/kg body weight) was administered to the mother by oral gavage at 7.25 dpc. Embryos were collected at 9.0 dpc, yolk sacs were taken for genotyping and embryos were fixed in 4% paraformaldehyde and embedded in paraffin for in situ hybridization on sections. For each embryo, three sets of alternate sections were hybridized to Hoxb-1, Krox-20 and Hoxa-3 probes. These probes have been described previously (Gaunt et al., Development 104 suppl.:71-82 (1988); Wilkinson et al., Nature 337:461-464 (1989); Hunt et al., Nature 353:861-864 (1991)). […] A separate series of embryos was processed for whole-mount in situ hybridization with a digoxigenin-labelled Hoxb-1 riboprobe. Both in situ hybridization procedures were performed as described in Décimo et al. (“In situ Hybridization to Cellular RNA,” in Gene Probes: A Practical Approach, Vol. 2, Hames et al., eds., Oxford University Press, Oxford, England, in press). For induction of limb malformations, all-trans RA was administered at 11.5 dpc (80 mg/kg) and fetuses were collected at 18.5 dpc and analyzed for skeletal malformations. For investigating induction of RARβ2 promoter activity in RARβ2 mutants, 25 mg/kg RA was administered at days 10.5 and 11.5 pc, then embryos were collected and stained for LacZ activity after 4 hours. For whole-mount skeletal analysis, fetuses were collected at 18.5 dpc by ceasarean section and skeletons were prepared as described (Lufkin et al., Nature 359:835-841 (1992)). Histological analysis was as in Lohnes et al. (Cell 73:643-658 (1993)) and lacZ staining as in Mendelsohn et al. (Development 113:723-734 (1991)).
# RARβ2+/− intercrosses were set up, and pregnant females were given 25 mg/kg all-trans RA at 7.25 dpc, a dose which is known to produce rhombomeric alterations. […] Hoxb-1 expression was analyzed by whole-mount in situ hybridization.
# [3] = system: RARα1 null homozygotes; assay: RA-induced malformations in RARα1 null homozygotes; details: RA at days 8.5-9.0 p.c.
# [4] = system: wild type and RARβ2 null fetuses; assay: RA-induced limb malformations in wild type and RARβ2 null fetuses; details: 80 mg/kg in utero at 11.5 dpc, fetuses at 18.5 dpc
# Protocol: For generation of hindbrain malformations timed mating experiments were performed and all-trans RA (Sigma) (25 mg/kg body weight) was administered to the mother by oral gavage at 7.25 dpc. Embryos were collected at 9.0 dpc, yolk sacs were taken for genotyping and embryos were fixed in 4% paraformaldehyde and embedded in paraffin for in situ hybridization on sections. For each embryo, three sets of alternate sections were hybridized to Hoxb-1, Krox-20 and Hoxa-3 probes. These probes have been described previously (Gaunt et al., Development 104 suppl.:71-82 (1988); Wilkinson et al., Nature 337:461-464 (1989); Hunt et al., Nature 353:861-864 (1991)). […] A separate series of embryos was processed for whole-mount in situ hybridization with a digoxigenin-labelled Hoxb-1 riboprobe. Both in situ hybridization procedures were performed as described in Décimo et al. (“In situ Hybridization to Cellular RNA,” in Gene Probes: A Practical Approach, Vol. 2, Hames et al., eds., Oxford University Press, Oxford, England, in press). For induction of limb malformations, all-trans RA was administered at 11.5 dpc (80 mg/kg) and fetuses were collected at 18.5 dpc and analyzed for skeletal malformations. For investigating induction of RARβ2 promoter activity in RARβ2 mutants, 25 mg/kg RA was administered at days 10.5 and 11.5 pc, then embryos were collected and stained for LacZ activity after 4 hours. […]
# [5] = system: RARγ2−/− animals; assay: RA-induced skeletal malformations in RARγ2−/− animals; details: RARγ2−/− animals versus control littermates, identical conditions
# [6] = RA 100 mg/kg single dose to dam at day 8.5 p.c., RARγ +/+ fetuses, day 18.5 p.c.
# [7] = RA 100 mg/kg single dose to dam at day 8.5 p.c., RARγ +/− fetuses, day 18.5 p.c.
# [8] = RA 100 mg/kg single dose to dam at day 8.5 p.c., RARγ −/− fetuses, day 18.5 p.c.
# [9] = RA 100 mg/kg single dose to dam at day 9.0 p.c., +/−, fetuses day 18.5 p.c.
# [10] = RA 100 mg/kg single dose to dam at day 9.0 p.c., RARγ +/− fetuses, day 18.5 p.c.
# [11] = RA 100 mg/kg single dose to dam at day 9.0 p.c., RARγ −/− fetuses, day 18.5 p.c.
structure (smiles),measurement,setting,value
"CC1=C(/C=C/C(C)=C/C=C/C(C)=C/C(=O)O)C(C)(C)CCC1 [RA, retinoic acid]",Caudal truncations,[1]; [6],11 (100%) fetuses (%)
same,Craniofacial malformations,[1]; [6],11 (100%) fetuses (%)
same,Degenerate ribs,[1]; [6],10 (91%) fetuses (%)
same,Homeotic transformations: 8 vertebrosternal ribs (T8 → T7),[1]; [6],7 (64%) fetuses (%)
same,Homeotic transformations: 14 or 15 ribs (L → T),[1]; [6],6 (54%) fetuses (%)
same,Caudal truncations,[1]; [7],13 (81%) fetuses (%)
same,Craniofacial malformations,[1]; [7],16 (100%) fetuses (%)
same,Degenerate ribs,[1]; [7],6 (38%) fetuses (%)
same,Homeotic transformations: 8 vertebrosternal ribs (T8 → T7),[1]; [7],8 (50%) fetuses (%)
same,Homeotic transformations: 14 or 15 ribs (L → T),[1]; [7],14 (87%) fetuses (%)
same,Malformed lumbar/sacral vertebrae,[1]; [7],3 (19%) fetuses (%)
same,Caudal truncations,[1]; [8],0 (0%) fetuses (%)
same,Craniofacial malformations,[1]; [8],10 (100%) fetuses (%)
same,Degenerate ribs,[1]; [8],0 (0%) fetuses (%)
same,Homeotic transformations: 8 vertebrosternal ribs (T8 → T7),[1]; [8],6 (50%) fetuses (%)
same,Homeotic transformations: 14 or 15 ribs (L → T),[1]; [8],7 (70%) fetuses (%)
same,Homeotic transformations: Number of lumbar vertebrae: 5,[1]; [8],1 (10%) fetuses (%)
same,Homeotic transformations: Number of lumbar vertebrae: 6,[1]; [8],9 (90%) fetuses (%)
same,Homeotic transformations: Number of lumbar vertebrae: 7,[1]; [8],0 (0%) fetuses (%)
same,Malformed lumbar/sacral vertebrae,[1]; [8],0 (0%) fetuses (%)
same,Caudal truncations,[1]; [9],13 (100%) fetuses (%)
same,Craniofacial malformations,[1]; [9],13 (100%) fetuses (%)
same,Degenerate ribs,[1]; [9],0 (0%) fetuses (%)
same,Homeotic transformations: 8 vertebrosternal ribs (T8 → T7),[1]; [9],7 (54%) fetuses (%)
same,Homeotic transformations: 14 or 15 ribs (L → T),[1]; [9],7 (54%) fetuses (%)
same,Caudal truncations,[1]; [10],14 (58%) fetuses (%)
same,Craniofacial malformations,[1]; [10],24 (100%) fetuses (%)
same,Degenerate ribs,[1]; [10],0 (0%) fetuses (%)
same,Homeotic transformations: 8 vertebrosternal ribs (T8 → T7),[1]; [10],9 (38%) fetuses (%)
same,Homeotic transformations: 14 or 15 ribs (L → T),[1]; [10],8 (33%) fetuses (%)
same,Malformed lumbar/sacral vertebrae,[1]; [10],10 (42%) fetuses (%)
same,Caudal truncations,[1]; [11],0 (0%) fetuses (%)
same,Craniofacial malformations,[1]; [11],18 (100%) fetuses (%)
same,Degenerate ribs,[1]; [11],0 (0%) fetuses (%)
same,Homeotic transformations: 8 vertebrosternal ribs (T8 → T7),[1]; [11],11 (61%) fetuses (%)
same,Homeotic transformations: 14 or 15 ribs (L → T),[1]; [11],11 (61%) fetuses (%)
same,Homeotic transformations: Number of lumbar vertebrae: 5,[1]; [11],1 (7%) fetuses (%)
same,Homeotic transformations: Number of lumbar vertebrae: 6,[1]; [11],15 (83%) fetuses (%)
same,Homeotic transformations: Number of lumbar vertebrae: 7,[1]; [11],3 (16%) fetuses (%)
same,Malformed lumbar/sacral vertebrae,[1]; [11],0 (0%) fetuses (%)
same,"lumbar to thoracic, sacral to lumbar and lumbar to sacral vertebral transformations",[1]; RA-treated RARγ null homozygotes,also occurred
same,RA-induced truncations,"[1]; RARγ heterozygotes, RA at day 8.5 p.c.",partially resistant
same,"lumbo-sacral vertebral malformations, including fusion of the neural arches and disorganized vertebral centres","[1]; RARγ+/− animals, RA-treated",always exhibited lumbo-sacral vertebral malformations
same,"spina bifida, truncation of the axial skeleton in the post-thoracic region, degenerate or fused ribs, disorganized vertebral centres or malformed neural arches",[1]; RARγ−/− embryos exposed to RA at day 8.5 p.c.,none
same,truncations and associated defects,"[1]; RARγ−/− littermates, RA at day 9.0 p.c.",never observed
same,truncations and associated defects,"[1]; WT embryos, RA at day 9.0 p.c. compared to day 8.5 p.c.",progressively more posterior truncations and associated defects
same,"spina bifida, truncation of the axial skeleton in the post-thoracic region, degenerate or fused ribs, disorganized vertebral centres or malformed neural arches",[1]; WT fetuses exposed to RA at day 8.5 p.c.,All WT fetuses exhibited these malformations
same,Hoxa-3 expression pattern,[2]; embryos collected at 9.0 dpc,No significant alteration
same,forebrain truncation,"[2]; observed at 9.0-9.5 dpc, wild-type and RARβ2 null embryos",Severe truncations of the forebrain
same,Krox-20 transcripts (in situ hybridization),[2]; RA-treated embryos,not detected in the putative R3
same,Hoxb-1 expression (in situ hybridization),[2]; wild type and RARβ2 null mutants,rostral expansion of the Hoxb-1 transcript domain
same,resistance to RA-induced malformations (lumbosacral truncations),[3],not observed
same,"nature or extent of the limb malformations, wild type versus RARβ2 null fetuses",[4],no apparent differences
same,"limb malformations (truncated long bones, missing digits)","[4]; wild type and RARβ2 null, compared to untreated",severely malformed limbs
same,type and frequency of RA-induced malformations,[5],same type and frequency of RA-induced malformations as control littermates

# Source: patent US6486381B1, “Genetically engineered mice containing alterations in the genes encoding retinoic acid receptor proteins” (Institut National de la Sante et de la Recherche Medicale, priority 1993, dated 2002)
